{"source": "the supplement of paper PMC10307832", "assay_in_all_cases": "relative viability (nuclei count vs DMSO), 5 days (fraction); higher = more cells survive", "key": {"[1]": {"test_system": "NCI-H1975", "summary_of_the_method": "(§1)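 Each reported value is a median over duplicate plates. It expresses relative viability: treated-well nuclei count divided by vehicle-well nuclei count. Lung cancer cell lines in 1536-well plates were dosed by pin tool a day after seeding, alone with one drug or with a fixed anchor-drug dose plus five library-drug doses (not always all listed) in √10 steps, and nuclei were counted after 5 days.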"}, "[2]": {"test_system": "NCI-H23", "summary_of_the_method": "as §1"}, "[3]": {"test_system": "UMC-11", "summary_of_the_method": "as §1"}, "[4]": {"test_system": "HOP-62", "summary_of_the_method": "as §1"}, "[5]": {"test_system": "LU99A", "summary_of_the_method": "as §1"}, "[6]": {"test_system": "NCI-H2405", "summary_of_the_method": "as §1"}, "[7]": {"test_system": "NCI-H727", "summary_of_the_method": "as §1"}, "[8]": {"test_system": "EPLC-272H", "summary_of_the_method": "as §1"}, "[9]": {"test_system": "NCI-H838", "summary_of_the_method": "as §1"}, "[10]": {"test_system": "ABC-1", "summary_of_the_method": "as §1"}, "[11]": {"test_system": "HCC-827", "summary_of_the_method": "as §1"}, "[12]": {"test_system": "NCI-H520", "summary_of_the_method": "as §1"}, "[13]": {"test_system": "NCI-H647", "summary_of_the_method": "as §1"}, "[14]": {"test_system": "NCI-H596", "summary_of_the_method": "as §1"}, "[15]": {"test_system": "BEN", "summary_of_the_method": "as §1"}, "[16]": {"test_system": "NCI-H1355", "summary_of_the_method": "as §1"}, "[17]": {"test_system": "NCI-H1792", "summary_of_the_method": "as §1"}, "[18]": {"test_system": "PC-14", "summary_of_the_method": "as §1"}, "[19]": {"test_system": "NCI-H322M", "summary_of_the_method": "as §1"}, "[20]": {"test_system": "NCI-H3122", "summary_of_the_method": "as §1"}, "[21]": {"test_system": "NCI-H1666", "summary_of_the_method": "as §1"}}}
{"compound": "Cc1cnc(-c2cnc(NCCNc3ccc(C#N)cn3)nc2-c2ccc(Cl)cc2Cl)[nH]1", "note": "+ CC(C)C[C@H](NC(=O)[C@H](Cc1ccccc1)NC(=O)c1cnccn1)B(O)O [Bortezomib] (partner 0.002 µM)", "values": [{"measurement": "relative viability", "setting": "[1]; first compound 0.08 µM", "value": 0.412}, {"measurement": "relative viability", "setting": "[1]; first compound 0.253 µM", "value": 0.391}, {"measurement": "relative viability", "setting": "[1]; first compound 0.8 µM", "value": 0.425}, {"measurement": "relative viability", "setting": "[1]; first compound 2.53 µM", "value": 0.328}, {"measurement": "relative viability", "setting": "[2]; first compound 0.08 µM", "value": 1.13}, {"measurement": "relative viability", "setting": "[2]; first compound 0.253 µM", "value": 0.846}, {"measurement": "relative viability", "setting": "[2]; first compound 0.8 µM", "value": 1.16}, {"measurement": "relative viability", "setting": "[2]; first compound 2.53 µM", "value": 1.13}, {"measurement": "relative viability", "setting": "[3]; first compound 0.08 µM", "value": 0.759}, {"measurement": "relative viability", "setting": "[3]; first compound 0.253 µM", "value": 0.595}, {"measurement": "relative viability", "setting": "[3]; first compound 0.8 µM", "value": 0.516}, {"measurement": "relative viability", "setting": "[3]; first compound 2.53 µM", "value": 0.659}, {"measurement": "relative viability", "setting": "[4]; first compound 0.08 µM", "value": 1.18}, {"measurement": "relative viability", "setting": "[4]; first compound 0.253 µM", "value": 0.772}, {"measurement": "relative viability", "setting": "[4]; first compound 0.8 µM", "value": 0.875}, {"measurement": "relative viability", "setting": "[4]; first compound 2.53 µM", "value": 0.907}, {"measurement": "relative viability", "setting": "[5]; first compound 0.08 µM", "value": 1.27}, {"measurement": "relative viability", "setting": "[5]; first compound 0.253 µM", "value": 1.12}, {"measurement": "relative viability", "setting": "[5]; first compound 0.8 µM", "value": 1.29}, {"measurement": "relative viability", "setting": "[5]; first compound 2.53 µM", "value": 1.18}, {"measurement": "relative viability", "setting": "[6]; first compound 0.08 µM", "value": 0.68}, {"measurement": "relative viability", "setting": "[6]; first compound 0.253 µM", "value": 1.02}, {"measurement": "relative viability", "setting": "[6]; first compound 0.8 µM", "value": 0.967}, {"measurement": "relative viability", "setting": "[6]; first compound 2.53 µM", "value": 0.98}, {"measurement": "relative viability", "setting": "[7]; first compound 0.08 µM", "value": 0.877}, {"measurement": "relative viability", "setting": "[7]; first compound 0.253 µM", "value": 0.808}, {"measurement": "relative viability", "setting": "[7]; first compound 0.8 µM", "value": 0.982}, {"measurement": "relative viability", "setting": "[7]; first compound 2.53 µM", "value": 0.889}, {"measurement": "relative viability", "setting": "[8]; first compound 0.08 µM", "value": 0.938}, {"measurement": "relative viability", "setting": "[8]; first compound 0.253 µM", "value": 0.84}, {"measurement": "relative viability", "setting": "[8]; first compound 0.8 µM", "value": 0.834}, {"measurement": "relative viability", "setting": "[8]; first compound 2.53 µM", "value": 0.903}, {"measurement": "relative viability", "setting": "[9]; first compound 0.08 µM", "value": 0.853}, {"measurement": "relative viability", "setting": "[9]; first compound 0.253 µM", "value": 0.757}, {"measurement": "relative viability", "setting": "[9]; first compound 0.8 µM", "value": 0.889}, {"measurement": "relative viability", "setting": "[9]; first compound 2.53 µM", "value": 0.99}, {"measurement": "relative viability", "setting": "[10]; first compound 0.08 µM", "value": 0.343}, {"measurement": "relative viability", "setting": "[10]; first compound 0.253 µM", "value": 0.257}, {"measurement": "relative viability", "setting": "[10]; first compound 0.8 µM", "value": 0.347}, {"measurement": "relative viability", "setting": "[10]; first compound 2.53 µM", "value": 0.252}, {"measurement": "relative viability", "setting": "[11]; first compound 0.08 µM", "value": 1.01}, {"measurement": "relative viability", "setting": "[11]; first compound 0.8 µM", "value": 0.877}, {"measurement": "relative viability", "setting": "[11]; first compound 2.53 µM", "value": 1.07}, {"measurement": "relative viability", "setting": "[12]; first compound 0.08 µM", "value": 0.72}, {"measurement": "relative viability", "setting": "[12]; first compound 0.253 µM", "value": 0.551}, {"measurement": "relative viability", "setting": "[12]; first compound 0.8 µM", "value": 0.473}, {"measurement": "relative viability", "setting": "[12]; first compound 2.53 µM", "value": 0.523}, {"measurement": "relative viability", "setting": "[13]; first compound 0.08 µM", "value": 0.943}, {"measurement": "relative viability", "setting": "[13]; first compound 0.253 µM", "value": 0.836}, {"measurement": "relative viability", "setting": "[13]; first compound 0.8 µM", "value": 1.05}, {"measurement": "relative viability", "setting": "[13]; first compound 2.53 µM", "value": 0.994}, {"measurement": "relative viability", "setting": "[14]; first compound 0.08 µM", "value": 1.19}, {"measurement": "relative viability", "setting": "[14]; first compound 0.253 µM", "value": 0.802}, {"measurement": "relative viability", "setting": "[14]; first compound 0.8 µM", "value": 1.09}, {"measurement": "relative viability", "setting": "[14]; first compound 2.53 µM", "value": 1.12}, {"measurement": "relative viability", "setting": "[15]; first compound 0.08 µM", "value": 0.623}, {"measurement": "relative viability", "setting": "[15]; first compound 0.253 µM", "value": 0.786}, {"measurement": "relative viability", "setting": "[15]; first compound 0.8 µM", "value": 0.725}, {"measurement": "relative viability", "setting": "[15]; first compound 2.53 µM", "value": 0.797}, {"measurement": "relative viability", "setting": "[16]; first compound 0.08 µM", "value": 1.29}, {"measurement": "relative viability", "setting": "[16]; first compound 0.253 µM", "value": 0.961}, {"measurement": "relative viability", "setting": "[16]; first compound 0.8 µM", "value": 1.04}, {"measurement": "relative viability", "setting": "[16]; first compound 2.53 µM", "value": 1.15}, {"measurement": "relative viability", "setting": "[17]; first compound 0.08 µM", "value": 0.89}, {"measurement": "relative viability", "setting": "[17]; first compound 0.253 µM", "value": 0.657}, {"measurement": "relative viability", "setting": "[17]; first compound 0.8 µM", "value": 0.876}, {"measurement": "relative viability", "setting": "[17]; first compound 2.53 µM", "value": 0.915}, {"measurement": "relative viability", "setting": "[18]; first compound 0.08 µM", "value": 0.804}, {"measurement": "relative viability", "setting": "[18]; first compound 0.253 µM", "value": 0.84}, {"measurement": "relative viability", "setting": "[18]; first compound 0.8 µM", "value": 0.82}, {"measurement": "relative viability", "setting": "[18]; first compound 2.53 µM", "value": 0.814}, {"measurement": "relative viability", "setting": "[19]; first compound 0.08 µM", "value": 1.13}, {"measurement": "relative viability", "setting": "[19]; first compound 0.253 µM", "value": 1.1}, {"measurement": "relative viability", "setting": "[19]; first compound 0.8 µM", "value": 1.22}, {"measurement": "relative viability", "setting": "[19]; first compound 2.53 µM", "value": 1.31}, {"measurement": "relative viability", "setting": "[20]; first compound 0.08 µM", "value": 1.03}, {"measurement": "relative viability", "setting": "[20]; first compound 0.253 µM", "value": 0.925}, {"measurement": "relative viability", "setting": "[20]; first compound 0.8 µM", "value": 0.997}, {"measurement": "relative viability", "setting": "[20]; first compound 2.53 µM", "value": 0.972}, {"measurement": "relative viability", "setting": "[21]; first compound 0.08 µM", "value": 0.824}, {"measurement": "relative viability", "setting": "[21]; first compound 0.253 µM", "value": 0.857}, {"measurement": "relative viability", "setting": "[21]; first compound 0.8 µM", "value": 0.764}, {"measurement": "relative viability", "setting": "[21]; first compound 2.53 µM", "value": 0.886}]}
